The results in this text go back to patent US20240417428A1, “POLYPEPTIDE FOR INHIBITING TRPM8 AND USE THEREOF” (ZHEJIANG UNIVERSITY, priority 2021, published 2024).

Assay [1] has as its target T1, TRPM8 (Mus musculus, UniProt Q8R4D5). Put plainly: Whole-cell electrophysiological recording, menthol-activated TRPM8 in transfected HEK293T cells. The format is cell-based. Also noted: expressed in transfected cells; host or cells: HEK293T. The note with it: negative control peptide. On the procedure: (§1) HEK293T cells were cultured in Dulbecco's modified Eagle culture medium under a 37° C., 5% CO2 environment, 10% fetal bovine serum, penicillin (100 U/mL), and streptomycin ([…]) was needed to add into the culture medium. Transient transfection was conducted by using Lipo 2000 (Invitrogen) transfection kit and following the instruction manual.
(§2) Electrophysiological experiment recordings were performed on the cells within 24˜48 h of transient transfections. Specifically, single channel electrophysiological recordings were performed within 8 h after transfection.
Measurement of the cell currents was respectively performed in the whole-cell recording mode, inside-out recording mode or outside-out recording mode with a HEKA EPC10 amplifier. In the whole cell electrophysiological recordings, glass microelectrodes made of borosilicate material were fire-polished to a original electrode resistance of about 3-6 MΩ. Serial resistance was compensated by 60%. The whole cell electrophysiological recordings were performed at ±80 mV. For single channel electrophysiological recordings, glass microelectrodes were fire-polished to a higher resistance of 6-8 MΩ2. Current signal was sampled at 10 kHz and filtered at 2.9 kHz. Membrane potential of the cell membrane would be clamped at +80 mV. All electrophysiological recordings were performed at room temperature (22° C.) (the maximum variation is 1° C.). […]

The target of assay [2] is T1, TRPM8. Description: Inside-out single-channel recording of menthol-activated TRPM8 at +80 mV. The format is cell-based. Further details: expressed in transfected cells; host or cells: HEK293T. The conditions noted are these: saturating menthol (1 mM) alone. As for the experimental part: as §1, §2
Measurement of the cell currents was respectively performed in the whole-cell recording mode, inside-out recording mode or outside-out recording mode with a HEKA EPC10 amplifier. In the whole cell electrophysiological recordings, glass microelectrodes made of borosilicate material were fire-polished to a original electrode resistance of about 3-6 MΩ. Serial resistance was compensated by 60%. The whole cell electrophysiological recordings were performed at ±80 mV. For single channel electrophysiological recordings, glass microelectrodes were fire-polished to a higher resistance of 6-8 MΩ2. Current signal was sampled at 10 kHz and filtered at 2.9 kHz. Membrane potential of the cell membrane would be clamped at +80 mV. All electrophysiological recordings were performed at room temperature (22° C.) (the maximum variation is 1° C.).
There were different bath and pipette solutions prepared for different ion channels current measurement. For ion channels such as TRPM8, TRPV1, TRPV2, TRPV3 and TRPA1, the formula of the bath and pipette solutions was: 130 mM NaCl, 0.2 mM EDTA and 3 mM HEPES, pH=7.2. For the current measurement of TRPM4 ion channel, the formula of the bath solution was: 130 mM NaCl and 3 mM HEPES, pH=7.2, and the formula of the pipette solution was: 500 μM CaCl2), 130 mM NaCl and 3 mM HEPES, pH=7.2. For the current measurement of TRPM2 ion channel, the formula of the bath solution was: 147 mM NaCl, 2 mM KCl, 1 mM MgCl2, 10 mM HEPES, 2 mM CaCl2) 13 mM Glucose, pH=7.4, and the formula of the pipette solution was: 147 mM NaCl, 1 mM MgCl2, 10 mM HEPES, pH=7.4. For the current measurement of Nav1.5, Nav1.7 ion channels, the formula of the bath solution was: 140 mM NaCl, 3 mM KCl, 1 mM MgCl2, 1 mM CaCl2), 10 mM HEPES, pH=7.2 and the formula of the pipette solution was: 140 mM CsF, 1 mM EGTA, 10 mM NaCl, 10 mM MgCl2, 3 mM KCl, pH=7.2. To evoke sodium channel current, the membrane potential was increased from −80 mV to +10 mV.
A rapid solution changer with a gravity-driven perfusion system (RSC-200, BioLogic) was used to rapidly perfuse specific solutions into the cells to be tested. Each solution was delivered through a separate tube so that there is no mixing of solutions. The glass microelectrode with a membrane patch was placed directly below the outlet of the perfusion tube during the electrophysiology recordings.

T1 sequence (Q8R4D5 whole entry): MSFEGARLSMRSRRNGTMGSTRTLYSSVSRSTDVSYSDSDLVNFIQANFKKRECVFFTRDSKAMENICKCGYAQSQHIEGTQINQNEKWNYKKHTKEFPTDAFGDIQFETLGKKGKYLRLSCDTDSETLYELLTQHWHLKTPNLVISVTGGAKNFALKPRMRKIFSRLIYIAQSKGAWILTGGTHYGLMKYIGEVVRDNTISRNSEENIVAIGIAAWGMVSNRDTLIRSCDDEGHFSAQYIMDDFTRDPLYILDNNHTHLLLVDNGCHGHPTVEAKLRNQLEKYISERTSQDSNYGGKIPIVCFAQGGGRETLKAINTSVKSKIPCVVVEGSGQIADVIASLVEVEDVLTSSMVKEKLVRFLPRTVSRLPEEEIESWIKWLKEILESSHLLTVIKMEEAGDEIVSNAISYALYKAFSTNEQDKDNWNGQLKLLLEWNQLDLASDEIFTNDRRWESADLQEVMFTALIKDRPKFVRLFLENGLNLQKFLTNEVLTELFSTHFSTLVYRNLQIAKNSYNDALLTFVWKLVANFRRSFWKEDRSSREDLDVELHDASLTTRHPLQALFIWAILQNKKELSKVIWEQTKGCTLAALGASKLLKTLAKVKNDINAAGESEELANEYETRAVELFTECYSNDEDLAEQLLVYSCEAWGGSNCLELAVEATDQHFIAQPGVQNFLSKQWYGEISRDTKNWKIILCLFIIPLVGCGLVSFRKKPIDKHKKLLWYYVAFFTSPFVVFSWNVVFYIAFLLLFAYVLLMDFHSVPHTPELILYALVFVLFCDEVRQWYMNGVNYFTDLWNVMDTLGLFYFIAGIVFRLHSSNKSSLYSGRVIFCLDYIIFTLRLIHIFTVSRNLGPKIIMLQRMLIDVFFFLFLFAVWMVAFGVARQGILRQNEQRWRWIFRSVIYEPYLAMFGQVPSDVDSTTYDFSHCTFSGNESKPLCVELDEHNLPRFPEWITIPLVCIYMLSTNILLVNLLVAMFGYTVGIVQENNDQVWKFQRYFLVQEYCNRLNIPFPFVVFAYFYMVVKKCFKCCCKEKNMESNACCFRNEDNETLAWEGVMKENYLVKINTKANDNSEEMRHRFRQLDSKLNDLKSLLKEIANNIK

For “CDHRRRQARYRRC [S-DeC-1.2, negative control polypeptide, reference compound]”, the “inhibition of TRPM8” value in assay [1] was “did not inhibit TRPM8”.
For `CC1CCC(C(C)C)C(O)C1` (stereo not drawn) [menthol, reference compound], in assay [2], the “maximum open probability of TRPM8 activation” value is recorded as roughly 70%. Also, the “single-channel conductance of TRPM8” value in assay [2] (n=3) was determined as 58.83±1.85 pS.
